# Reference: article PMC10480310 (iScience, 2023)
# Target: TEK receptor tyrosine kinase (Homo sapiens, UniProt Q02763)
# Experiment: phospho-TEK ELISA on lysates of Ang1-stimulated HUVECs
# Format: cell-based
# Chain of TEK receptor tyrosine kinase (Q02763 23-1124): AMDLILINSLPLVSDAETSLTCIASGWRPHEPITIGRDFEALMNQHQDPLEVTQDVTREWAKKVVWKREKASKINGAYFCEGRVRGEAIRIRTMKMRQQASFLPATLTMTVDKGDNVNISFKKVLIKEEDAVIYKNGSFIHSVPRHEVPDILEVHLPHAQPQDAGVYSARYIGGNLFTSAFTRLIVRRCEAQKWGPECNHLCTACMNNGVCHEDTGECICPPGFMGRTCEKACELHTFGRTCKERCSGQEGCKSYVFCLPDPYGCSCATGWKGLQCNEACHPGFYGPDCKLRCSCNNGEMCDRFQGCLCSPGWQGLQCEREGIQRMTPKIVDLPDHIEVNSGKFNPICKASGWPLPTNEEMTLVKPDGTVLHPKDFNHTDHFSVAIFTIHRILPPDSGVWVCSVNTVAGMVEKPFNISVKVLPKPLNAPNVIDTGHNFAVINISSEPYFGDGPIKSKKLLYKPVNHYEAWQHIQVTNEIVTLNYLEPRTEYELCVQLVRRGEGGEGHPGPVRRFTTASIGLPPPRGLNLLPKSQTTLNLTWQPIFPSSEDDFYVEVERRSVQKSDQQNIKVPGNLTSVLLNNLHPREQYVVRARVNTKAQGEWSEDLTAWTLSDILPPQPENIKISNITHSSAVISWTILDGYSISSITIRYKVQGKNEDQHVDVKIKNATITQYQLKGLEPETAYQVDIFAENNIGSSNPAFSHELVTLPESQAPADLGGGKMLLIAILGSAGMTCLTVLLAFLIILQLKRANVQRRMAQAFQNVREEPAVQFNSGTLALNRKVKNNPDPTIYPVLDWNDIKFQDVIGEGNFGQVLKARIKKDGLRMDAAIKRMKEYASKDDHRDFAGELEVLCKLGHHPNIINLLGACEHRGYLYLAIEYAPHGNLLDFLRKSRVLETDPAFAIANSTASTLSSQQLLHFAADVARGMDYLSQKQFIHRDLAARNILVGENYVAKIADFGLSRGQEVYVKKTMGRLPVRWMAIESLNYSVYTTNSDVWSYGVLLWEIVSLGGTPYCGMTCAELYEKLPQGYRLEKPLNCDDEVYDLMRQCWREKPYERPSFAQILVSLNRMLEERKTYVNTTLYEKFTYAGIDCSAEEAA
smiles,measurement,value
"c1cc(-c2cnn3cc(-c4ccc(OCCN5CCCCC5)cc4)cnc23)ccn1 [DM, Dorsomorphin]",IC50,4.72 µM
